Assay results: US20090131327A1, “NOGO RECEPTOR FUNCTIONAL MOTIFS AND PEPTIDE MIMETICS RELATED THERETO AND METHODS OF USING THE SAME” (priority 2005, published 2009)
Where “and” joins values, the source holds several entries; their conditions need not be identical. Equal values may be shown once. Entries after “also recorded” stand apart in the source; their conditions may differ. Positions of bridges follow the written chain, without caps; N, C: chain ends.

Legend:
[1] = tested on: cerebellar neurons; assay: Neurite outgrowth assay: antagonism of MAG-Fc-mediated inhibition of neurite outgrowth, neurons over 3T3 monolayers; type: cell-based, rat; settings: MAG-Fc 20 μg/ml; for antagonism of MAG-Fc inhibition of neurite outgrowth: peptide 100 μg/ml, ~23-27 hr, FIG. 2; for peptide concentration with maximal promotion of neurite outgrowth / peptide concentration with significant promotion of neurite outgrowth: FIG. 5; for antagonism of inhibitory activity of MAG-Fc: peptide 50 μg/ml (60 μM)
[2] = tested on: cerebellar neurons; assay: as above; type: cell-based, rat; settings: for effectiveness in antagonizing MAG inhibition relative to NRL2: compared with parental peptide NRL2
Method: (§1) Cerebellar neurons isolated from postnatal day 2/3 rat pups were cultured over monolayers of 3T3 cells (Doherty et al. (1991) Neuron 6(2):247-58) essentially as previously described (Williams et al. (1994) Neuron 13(3):583-94). Monolayers were established by seeding ˜80,000 cells into individual chambers of an eight-chamber tissue culture slide coated with poly-L-lysine and fibronectin. The cell lines, and monolayers, were maintained in Dulbecco's modified Eagle's medium supplemented with 10% fetal calf serum (FCS). Cocultures were established by removing the media from the monolayers and seeding ˜6000 dissociated cerebellar neurons into each well in SATO medium (modified from Doherty et al. (1990) Neuron 5(2):209-19; Dulbecco's modified Eagle's medium supplemented with 2% FBS, 33% bovine albumin, 0.62 μg/ml progesterone, 161 μg/ml putrescine, 4 μg/ml L-thyroxine, 0.387 μg/ml selenium, and 3.37 μg/ml tri-iodo-thyronine (components from Sigma-Aldrich, St. Louis, Mo.)). Monolayers were established for 24 hours prior to addition of the neurons and the cultures were maintained for ˜23-27 hr. Following careful fixation with 4% paraformaldehyde, the neurons were immunostained with a GAP-43 antibody, and the mean length of the longest neurite per cell was measured for ˜120-150 neurons, again as previously described (Williams et al. (1994) Neuron 13(3):583-94).
(§2) Synthetic peptides were all obtained from a commercial supplier (Multiple Peptide Systems, San Diego, Calif.). All peptides were purified to the highest grade by reverse-phase HPLC and obtained at the highest level of purity (>97%). With all peptides, there was no indication of higher molecular weight species. Where peptide sequences are underlined, this denotes a peptide that has been cyclized via a disulfide bond between the given cysteine residues. All peptides were acetylated (e.g., denoted with “N—Ac—”) and amide blocked (e.g., denoted with “—NH2”). Recombinant MAG-Fc chimera was obtained from R&D Systems (Minneapolis, Minn.) and used at final concentrations ranging from 5-25 μg/ml. The monoclonal antibody to GT1b (clone GMR5) was obtained from Seikagaku America (Falmouth, Mass.) and was used at a final concentration of 20 μg/ml. All reagents were diluted into the coculture media and, in general, added to the cultures just prior to the plating of the neurons.
MAG was the first inhibitory component of myelin to be identified based on its ability to inhibit neurite outgrowth from postnatal rat cerebellar neurons (Mukhopadhyay et al. (1994) Neuron 13(3):757-67). […] NgR1 function is required for MAG inhibition of neurite outgrowth (Domeniconi et al. (2002) Neuron 35(2):283-90; Liu et al. (2002) Science 297:1190-93). Consequently, in order to determine if the mimetic peptides could antagonize, (e.g., reverse, decrease, reduce, prevent, etc.) NgR1 function (e.g., reverse NgR1-ligand-mediated inhibition of axonal growth), the peptides were tested for their ability to antagonize MAG-mediated inhibition of axonal growth. […] The ability of the NRL peptides to antagonize MAG-mediated inhibition of axonal growth was tested in a number of independent experiments. […] In order to evaluate the efficacy of the NRL2 peptide, the ability of various concentrations of NRL2 to overcome the inhibitory activity of 25 μg/ml of the soluble MAG-Fc chimera was tested. Results obtained from at least three independent experiments have been pooled to generate FIG. 3.

[3] = tested on: cerebellar neurons; assay: Neurite outgrowth assay: substance alone in coculture media, neurons over 3T3 monolayers; type: cell-based, rat; settings: without MAG-Fc; for effect on neurite outgrowth in control media: peptide alone
Method: as §1, §2
MAG was the first inhibitory component of myelin to be identified based on its ability to inhibit neurite outgrowth from postnatal rat cerebellar neurons (Mukhopadhyay et al. (1994) Neuron 13(3):757-67). […] NgR1 function is required for MAG inhibition of neurite outgrowth (Domeniconi et al. (2002) Neuron 35(2):283-90; Liu et al. (2002) Science 297:1190-93). […]

[4] = tested on: cerebellar neurons; assay: Neurite outgrowth assay: antagonism of inhibition by anti-GT1b antibody; type: cell-based, rat; settings: peptide 100 μg/ml; anti-GT1b up to 40 μg/ml; FIG. 4
Method: Cerebellar neurons isolated from postnatal day 2/3 rat pups were cultured over monolayers of 3T3 cells (Doherty et al. (1991) Neuron 6(2):247-58) essentially as previously described (Williams et al. (1994) Neuron 13(3):583-94). Monolayers were established by seeding ˜80,000 cells into individual chambers of an eight-chamber tissue culture slide coated with poly-L-lysine and fibronectin. The cell lines, and monolayers, were maintained in Dulbecco's modified Eagle's medium supplemented with 10% fetal calf serum (FCS). Cocultures were established by removing the media from the monolayers and seeding ˜6000 dissociated cerebellar neurons into each well in SATO medium (modified from Doherty et al. (1990) Neuron 5(2):209-19; Dulbecco's modified Eagle's medium supplemented with 2% FBS, 33% bovine albumin, 0.62 μg/ml progesterone, 161 μg/ml putrescine, 4 μg/ml L-thyroxine, 0.387 μg/ml selenium, and 3.37 μg/ml tri-iodo-thyronine (components from Sigma-Aldrich, St. Louis, Mo.)). Monolayers were established for 24 hours prior to addition of the neurons and the cultures were maintained for ˜23-27 hr. Following careful fixation with 4% paraformaldehyde, the neurons were immunostained with a GAP-43 antibody, and the mean length of the longest neurite per cell was measured for ˜120-150 neurons, again as previously described (Williams et al. (1994) Neuron 13(3):583-94). […]

[5] = tested on: myelin; assay: Antagonism of the inhibitory activity of myelin (data not shown); type: cell-based

N-Ac-CAGRDLKRC-NH2 (disulfide 1-9; SMILES CC(=O)N[C@H]1CSSC[C@@H](C(N)=O)NC(=O)[C@H](CCCNC(=N)N)NC(=O)[C@H](CCCCN)NC(=O)[C@H](CC(C)C)NC(=O)[C@H](CC(=O)O)NC(=O)[C@H](CCCNC(=N)N)NC(=O)CNC(=O)[C@H](C)NC1=O) [NRL4]
antagonism of MAG-Fc inhibition of neurite outgrowth [1]: MAG-Fc also substantially inhibited neurite outgrowth

N-Ac-CKFRGSC-NH2 (disulfide 1-7; SMILES CC(=O)N[C@H]1CSSC[C@@H](C(N)=O)NC(=O)[C@H](CO)NC(=O)CNC(=O)[C@H](CCCNC(=N)N)NC(=O)[C@H](Cc2ccccc2)NC(=O)[C@H](CCCCN)NC1=O) [NRL2a]
effectiveness in antagonizing MAG inhibition relative to NRL2 [2]: as effective as NRL2
effectiveness in antagonizing MAG inhibition relative to NRL2 ([2]; listed as N-Ac-CKFRGSC-NH2): as effective as the longer parental peptide
effect on neurite outgrowth in control media [3]: no effect
peptide concentration with maximal promotion of neurite outgrowth [1]: 50 μg/ml and 60 μM
peptide concentration with significant promotion of neurite outgrowth [1]: 25 μg/ml and 30 μM
antagonism of inhibitory activity of MAG-Fc [1]: effectively antagonized

N-Ac c[sGrfkq]-NH2 (XGXXXX; not fully specified; cyclised or stapled) [hriNRL2]
reversal of MAG-mediated inhibition of neurite outgrowth ([1]; increasing peptide concentrations, FIG. 6): reverse MAG-mediated inhibition of neurite outgrowth

N-Ac-CYNEPKVTC-NH2 (disulfide 1-9; SMILES CC(=O)N[C@H]1CSSC[C@@H](C(N)=O)NC(=O)[C@H]([C@@H](C)O)NC(=O)[C@H](C(C)C)NC(=O)[C@H](CCCCN)NC(=O)[C@@H]2CCCN2C(=O)[C@H](CCC(=O)O)NC(=O)[C@H](CC(N)=O)NC(=O)[C@H](Cc2ccc(O)cc2)NC1=O) [NRL1]
antagonism of MAG-Fc inhibition of neurite outgrowth [1]: MAG-Fc also substantially inhibited neurite outgrowth

N-Ac-CQKFRGC-NH2 (disulfide 1-7; SMILES CC(=O)N[C@H]1CSSC[C@@H](C(N)=O)NC(=O)CNC(=O)[C@H](CCCNC(=N)N)NC(=O)[C@H](Cc2ccccc2)NC(=O)[C@H](CCCCN)NC(=O)[C@H](CCC(N)=O)NC1=O) [NRL2b]
effectiveness in antagonizing MAG inhibition relative to NRL2 [2]: as effective as NRL2
effectiveness in antagonizing MAG inhibition relative to NRL2 ([2]; listed as N-Ac-CQKFRGC-NH2): as effective as the longer parental peptide
effect on neurite outgrowth in control media [3]: no effect
peptide concentration with maximal promotion of neurite outgrowth [1]: 50 μg/ml and 60 μM
peptide concentration with significant promotion of neurite outgrowth [1]: 25 μg/ml and 30 μM
antagonism of inhibitory activity of MAG-Fc [1]: effectively antagonized

N-Ac-CLQKFRGSSC-NH2 (disulfide 1-10; SMILES CC(=O)N[C@H]1CSSC[C@@H](C(N)=O)NC(=O)[C@H](CO)NC(=O)[C@H](CO)NC(=O)CNC(=O)[C@H](CCCNC(=N)N)NC(=O)[C@H](Cc2ccccc2)NC(=O)[C@H](CCCCN)NC(=O)[C@H](CCC(N)=O)NC(=O)[C@H](CC(C)C)NC1=O) [NRL2]
activity as MAG antagonist (summary in discussion) ([2]; four disulfide-constrained NgR1 loop peptides): effective MAG antagonist
effect on neurite outgrowth in control media [3]: no effect
effect on control neurite outgrowth ([3]; tested at up to 200 μg/ml, FIG. 3): little effect
antagonism of inhibitory effects of anti-GT1b antibody [4]: reversed; also recorded: just as effective
antagonism of MAG-Fc inhibition of neurite outgrowth [1]: largely antagonized

Ac-CTDIKGKEC-NH2 (cysteine pairing not given here)
antagonism of the inhibitory activity of myelin [5]: do not antagonize

NGF: nerve growth factor
antagonism of the inhibitory activity of myelin [5]: do not antagonize

N-Ac-CSLPQRLAC-NH2 (disulfide 1-9; SMILES CC(=O)N[C@H]1CSSC[C@@H](C(N)=O)NC(=O)[C@H](C)NC(=O)[C@H](CC(C)C)NC(=O)[C@H](CCCNC(=N)N)NC(=O)[C@H](CCC(N)=O)NC(=O)[C@@H]2CCCN2C(=O)[C@H](CC(C)C)NC(=O)[C@H](CO)NC1=O) [NRL3]
antagonism of MAG-Fc inhibition of neurite outgrowth [1]: MAG-Fc also substantially inhibited neurite outgrowth
